{"source": "patent US9943599B2", "about": "“Therapeutic applications of calcium electroporation to effectively induce tumor necrosis” (Herlev Hospital, priority 2011, dated 2018)", "key": {"DC-3F cells [1]": {"test_system": "DC-3F cells", "test": "ATP assay after calcium electroporation", "format": "cell-based, Chinese hamster", "procedure": "DC-3F cells are electroporated as described in Example 1 with 1 mM calcium. Cells electroporated with HEPES buffer, non-electroporated cells with 1 mM calcium, and untreated cells are used as controls. Cell death induced by irreversible electroporation (8 pulses of 6.6 kV/cm with pulse duration of 99 μs) is used as […]. Cells are seeded in 96-well plates at a concentration of 3.1×10^4 cells/100 μl. Cells are lysed using Cell-Based Assay Lysis Buffer (Cayman Chemical, Ann Arbor, Mich.) and ATP content is determined after 1, 4 and 8 hours incubation by adding 100 μl rL/L Reagent (ENLITEN® ATP assay, Promega, Madison, Wis.) and measuring light emission using a luminometer (LUMIstar®, BMG biotechnology, Ortenberg, Germany).\nDifference in ATP level after different treatments is assessed using two-way ANOVA with post least-squares-means test with Bonferroni correction for multiple comparisons."}, "basocellular carcinoma": {"test_system": "basocellular carcinoma", "test": "Case study, calcium electroporation in a human patient", "format": "in vivo", "procedure": "In a patient with multiple basocellular carcinomas, where all known treatment options had been tried and the patient was still in need of treatment, calcium electroporation was tried.\nIn this patient, lesions that were verified by biopsy to contain basocellular carcinoma were treated with different doses of calcium chloride or calcium glubionate with electroporation. Three lesions were treated, measuring 0.8 to 2 cm, by 0.1-0.2 mm deep.\nAfter local anaesthesia (Mir et al), calcium was injected intratumorally using a thin needle and 1 ml syringe. Volumes of resp. 0.1, 0.7 and 3.7 times the calculated tumor volume (in this case calculated as diameter times perpendicular diameter times depth due to the shape of the tumors) was injected.\nImmediately after injection (within 45 seconds), electroporation was performed using a square wave pulse generator (CLINIPORATOR®, IGEA, Modena, Italy) and needle electrodes with parallel arrays 0.4 cm apart. Eight pulses of a duration of 0.1 ms and 1 kV/cm (voltage to electrode distance ratio) were administered immediately after calcium injection."}, "DC-3F cells [2]": {"test_system": "DC-3F cells", "test": "Calcium electroporation with two calcium sources, MTT assay", "format": "cell-based, Chinese hamster", "details": "1 mM, 8 pulses, 0-1.6 kV/cm; MTT 1 day after treatment", "procedure": "DC-3F cells were electroporated as described in example 1 with 1 mM calcium chloride (prepared by SAD, Denmark) or 1 mM calcium glubionate (Sandoz, Holzkirchen, Germany). The calcium concentration was chosen based on the experiment described in example 1 where 1 mM calcium is the lowest concentration inducing high cell death. The cells were electroporated with 8 pulses of […] at 1 Hz and increasing electric field (0-1.6 kV/cm). After 20 min at 37° C. and 5% CO2 cells were diluted in RPMI 1640 culture medium with 10% fetal calf serum and penicillin-streptomycin and seeded in 96-well plates at a concentration of 3.1×10^4 cells/100 μl."}, "tumor on the heel joint": {"test_system": "tumor on the heel joint", "test": "Case study, calcium electroporation of canine tumor", "format": "in vivo, dog", "details": "168 mM calcium chloride, 50% of tumor volume, 11 days after treatment", "procedure": "A seven year old Danish Pointer dog with a tumor on the heel joint was treated with calcium electroporation. The tumor was injected with 168 mM calcium chloride solution in a total volume equivalent to 50% of the tumor volume calculated as ab^2n/6, where “a” is the largest diameter of the tumor and “b” is the largest diameter perpendicular to “a”. The calcium chloride solution was injected throughout the tumor to secure an even distribution of calcium in the tumor. After the calcium injection the tumor was electroporated (8 pulses of […] at 1.0 kV/cm and 1 Hz) using a needle electrode and a square wave electroporator (CLINIPORATOR®, IGEA, Modena, Italy). The tumor was photographed before and after the treatment."}, "[3]": {"test_system": "MDA-MB231 (human breast cancer) tumors", "test": "Fraction of tumor necrosis at different calcium concentrations and injection volumes", "format": "in vivo, NMRI-Foxn1nu mice", "details": "electroporation, 7 days", "procedure": "MDA-MB231, a human breast cancer cell line was used for the in vivo experiments. The cells were tested by rapid MAP27 panel (Taconic, Hudson N.Y.) before use without signs of infection. Cells were maintained in vitro as described in Example 1. 2.5×10^6 cells/100 μl PBS were injected subcutaneously in the flank of NMRI-Foxn1nu mice (Harlan, Indianapolis, Ind.). Tumor pieces are transplanted twice from donor mice to the flank of nude mice that were 13-19 weeks old. HYPNORM™-DORMICUM™ (fentanyl/fluanisone/midazolam; VetaPharma, Leeds, U K and Roche, Basel, Switzerland) was used for anesthesia complemented with RIMADYL® (Carprofen) (Pfizer ApS, Ballerup, Denmark) as well as lidocaine (Region Hovedstadens Apotek, Herlev, Denmark) in the incision. Mice were randomised at a tumor volume above 85 mm3 and tumors were treated with 1) injection of calcium-chloride solution and electroporation (8 pulses of 1.0 kV/cm for 100 μs and a frequency of 1 Hz) using a 6 mm plate electrode and a square wave electroporator (CLINIPORATOR®, IGEA, Modena, Italy), 2) calcium-free physiological saline injection and electroporation (same parameters as above), 3) injection of calcium-chloride, 4) calcium-free physiological saline injection, or 5) untreated but with needle inserted in the tumor without injection and with electrodes put on the tumor without pulses applied. […] Tumor volume was calculated as ab2n/6, where a is the largest diameter and b is the largest diameter perpendicular to a. The solutions were injected through the side of the firm tumor and the needle was moved around inside the tumor to secure injection all over the tumor. Tumors were removed 7 days after treatment, fixated in formalin (10% neutrally buffered) and paraffin embedded. Subsequently, tissue sections with a thickness of 3 μm were HE-stained according to the routine procedure of the department. The fraction of necrosis within the tumor was estimated from HE-sections using a light microscope, evaluated by a pathologist, blinded with respect to treatment status."}, "[4]": {"test_system": "H69 (human small cell lung cancer) tumors", "test": "Tumor volume and fluorescence intensity of H69 tumors on nude mice", "details": "for necrosis of skin / healthy tissue around the tumor: injected volume equivalent to the tumor volume (1 to 1 ratio)"}, "[5]": {"details": "168 mM CaCl2 with electroporation"}}}
{"smiles": "[Ca+2].[Cl-].[Cl-]", "note": "[calcium chloride]", "values": [{"measurement": "ATP level, percent of control", "setting": "DC-3F cells [1]; 1 mM calcium with electroporation, up to 8 hours after treatment", "result": 10.3, "unit": "%"}, {"measurement": "effect on ATP levels", "setting": "DC-3F cells [1]; 1 mM calcium without electroporation", "result": "does not affect ATP levels"}, {"measurement": "normal skin reaction (clinical observation)", "setting": "basocellular carcinoma; highest volume (3.7 times tumor volume), with electroporation", "result": "necrosis of normal skin"}, {"measurement": "tumor response (biopsy)", "setting": "basocellular carcinoma; injected volume 0.1 of tumor volume, with electroporation", "result": "did not lead to changes"}, {"measurement": "tumor response (biopsy)", "setting": "basocellular carcinoma; injected volume 0.7 of tumor volume, electroporation 8 pulses 0.1 ms 1 kV/cm", "result": "efficient tumor cell kill"}, {"measurement": "effect of calcium electroporation on cell viability, calcium chloride versus calcium glubionate", "setting": "DC-3F cells [2]", "result": "no difference"}, {"measurement": "necrosis of tumor", "setting": "tumor on the heel joint", "result": "clinical signs of necrosis"}, {"measurement": "tumor size (photos)", "setting": "tumor on the heel joint", "result": "reduced in size"}, {"measurement": "fraction of necrosis in tumors", "setting": "[3]; 100 mM to 500 mM calcium, constant injection volume 50% of tumor volume", "result": "higher than the fraction of necrosis in untreated tumors"}, {"measurement": "injection volume with highest fraction of necrosis", "setting": "[3]; 168 mM calcium", "result": "40 % of the tumor volume"}, {"measurement": "fraction of necrosis in tumors", "setting": "[3]; injection volumes 20% to 80% of tumor volume, constant 168 mM calcium", "result": "higher than the fraction of necrosis in untreated tumors"}, {"measurement": "treated tumors eliminated", "setting": "[4]; 168 mM CaCl2 intratumoral with electroporation (8 pulses 1.0 kV/cm, 100 μs, 1 Hz), 8/9", "result": 89, "unit": "%"}, {"measurement": "healing of ulceration, average", "setting": "[4]; [5]", "result": 18, "unit": "days"}, {"measurement": "healing of ulceration, range", "setting": "[4]; [5]", "result": "9 to 24", "unit": "days"}, {"measurement": "ulceration of treated tumors", "setting": "[4]; [5]", "result": "occurs in all"}, {"measurement": "fluorescence intensity of tumors", "setting": "[4]; 168 mM CaCl2 with electroporation, stays at background levels", "result": "decrease drastically"}, {"measurement": "necrosis of skin / healthy tissue around the tumor", "setting": "[4]; with electroporation, listed as Ca^2+-EP", "result": "skin necrosis"}, {"measurement": "necrosis of skin / healthy tissue around the tumor", "setting": "[4]; with electroporation, listed as calcium solution", "result": "necrotic effect on the healthy tissues surrounding the neoplasm"}, {"measurement": "necrosis of surrounding tissue", "setting": "[4]; injected volume ratio 0.5 of tumor volume, with electroporation", "result": "without creating necrosis in the surrounding tissue"}, {"measurement": "tumor volume doubling time", "setting": "[4]; isotonic calcium-chloride without electroporation", "result": 6.3, "unit": "days"}]}
